What was measured:
Type in all cases: cell-based
Moraxella catarrhalis = assay: MIC against Gram-negative bacteria: Moraxella catarrhalis; conditions: 10 h cultivation at 37° C.
Procedure, shortened: (§1)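 LB broth cultures at McFarland 0.5, spun down, resuspended, diluted to 5×10^5 CFU/mL final. Two-fold serial dilutions of purified human EGF domain proteins, triplicate. 37° C, 175 rpm shaking. Endpoint: no visible growth.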

Citrobacter diversus = assay: MIC against Gram-negative bacteria: Citrobacter diversus; conditions: 10 h cultivation at 37° C.
Procedure, shortened: as §1

E. coli BL21 = assay: MIC against Gram-negative bacteria: E. coli BL21; conditions: 10 h cultivation at 37° C.
Procedure, shortened: as §1

Proteus vulgaris = assay: MIC against Gram-negative bacteria: Proteus vulgaris; conditions: 10 h cultivation at 37° C.
Procedure, shortened: as §1

Enterobacter cloacae = assay: MIC against Gram-negative bacteria: Enterobacter cloacae; conditions: 10 h cultivation at 37° C.
Procedure, shortened: as §1

Pseudomonas aeruginosa = assay: MIC against Gram-negative bacteria: Pseudomonas aeruginosa; conditions: 10 h cultivation at 37° C.
Procedure, shortened: as §1

Proteus mirabilis = assay: MIC against Gram-negative bacteria: Proteus mirabilis; conditions: 10 h cultivation at 37° C.
Procedure, shortened: as §1

Serratia marcescens = assay: MIC against Gram-negative bacteria: Serratia marcescens; conditions: 10 h cultivation at 37° C.
Procedure, shortened: as §1

E. coli DH5α = assay: Antibacterial activity: MIC and growth curve against E. coli DH5α in 96-well plate; conditions: minimal inhibitory concentration against E. coli DH5α; 96-well plate, 5×10^5 CFU/mL, 37° C., judged after 8 h
Procedure, shortened: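 Log-phase bacteria (OD600 ~0.5) resuspended in LB at 5×10^5 CFU/mL, exposed to recombinant protein at 50, 25, 12.5 μg/mL final in triplicate, 37 °C shaking at 175 rpm. OD600 read every 30 min; MIC is lowest concentration showing no growth.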

Aeromonas hydrophila = assay: MIC against Gram-negative bacteria: Aeromonas hydrophila; conditions: 10 h cultivation at 37° C.
Procedure, shortened: as §1

Klebsiella pneumonia = assay: MIC against Gram-negative bacteria: Klebsiella pneumonia; conditions: 10 h cultivation at 37° C.
Procedure, shortened: as §1

[1] = 5×10^5 CFU/mL, two-fold serial dilution

PRT1366 (ERLACPGACSGHGRCVDGRCLCHEPYVGADCG; listed as Homo sapiens)
MIC against M. catarrhalis (Moraxella catarrhalis; Moraxella catarrhalis, 5×10^5 CFU/mL): 12.5 µg/mL
MIC against C. diversus (Citrobacter diversus; Citrobacter diversus, 5×10^5 CFU/mL): 12.5 µg/mL
MIC against E. coli BL21 (E. coli BL21; E. coli BL21, 5×10^5 CFU/mL): 12.5 µg/mL
MIC against P. vulgaris (Proteus vulgaris; Proteus vulgaris, 5×10^5 CFU/mL): 12.5 µg/mL
MIC against E. cloacae (Enterobacter cloacae; Enterobacter cloacae, 5×10^5 CFU/mL): 12.5 µg/mL
MIC against P. aeruginosa (Pseudomonas aeruginosa; Pseudomonas aeruginosa, 5×10^5 CFU/mL): 12.5 µg/mL
MIC against P. mirabilis (Proteus mirabilis; Proteus mirabilis, 5×10^5 CFU/mL): 12.5 µg/mL
MIC against S. marcescens (Serratia marcescens; Serratia marcescens, 5×10^5 CFU/mL): 12.5 µg/mL
MIC (E. coli DH5α): 12.5 µg/mL
MIC against A. hydrophila (Aeromonas hydrophila; Aeromonas hydrophila, 5×10^5 CFU/mL): 12.5 µg/mL
MIC against K. pneumonia (Klebsiella pneumonia; Klebsiella pneumonia, 5×10^5 CFU/mL): 25 µg/mL

PRT1032 (DVNECDIPGHCQHGGTCLNLPGSYQCQCLQGFTGQYCD; listed as Homo sapiens)
MIC (Moraxella catarrhalis; M. catarrhalis): 50 µg/mL
MIC (Citrobacter diversus; C. diversus): 25 µg/mL
MIC (E. coli BL21; E. coli BL21): 12.5 µg/mL
MIC (Proteus vulgaris; P. vulgaris): 12.5 µg/mL
MIC (Enterobacter cloacae; E. cloacae): 50 µg/mL
MIC (Pseudomonas aeruginosa; P. aeruginosa): 50 µg/mL
MIC (Proteus mirabilis; P. mirabilis): 25 µg/mL
MIC (Serratia marcescens; S. marcescens): 25 µg/mL
MIC (E. coli DH5α): 50 µg/mL
MIC (Aeromonas hydrophila; A. hydrophila): 12.5 µg/mL
MIC (Klebsiella pneumonia; K. pneumonia): 12.5 µg/mL

PRT767 (AIDLCAEGTHGCEHHCVNSPGSYFCHCQVGFVLQQDQ; listed as Homo sapiens)
MIC (μg/mL) M. catarrhalis (Moraxella catarrhalis; M. catarrhalis, 5×10^5 CFU/mL): 50 µg/mL
MIC (μg/mL) C. diversus (Citrobacter diversus; C. diversus, 5×10^5 CFU/mL): 25 µg/mL
MIC (μg/mL) E. coli BL21 (E. coli BL21; E. coli BL21, 5×10^5 CFU/mL): 50 µg/mL
MIC (μg/mL) P. vulgaris (Proteus vulgaris; P. vulgaris, 5×10^5 CFU/mL): 12.5 µg/mL
MIC (μg/mL) E. cloacae (Enterobacter cloacae; E. cloacae, 5×10^5 CFU/mL): 50 µg/mL
MIC (μg/mL) P. aeruginosa (Pseudomonas aeruginosa; P. aeruginosa, 5×10^5 CFU/mL): 25 µg/mL
MIC (μg/mL) P. mirabilis (Proteus mirabilis; P. mirabilis, 5×10^5 CFU/mL): 25 µg/mL
MIC (μg/mL) S. marcescens (Serratia marcescens; S. marcescens, 5×10^5 CFU/mL): 50 µg/mL
MIC (E. coli DH5α): 25 µg/mL
MIC (μg/mL) A. hydrophila (Aeromonas hydrophila; A. hydrophila, 5×10^5 CFU/mL): 12.5 µg/mL
MIC (μg/mL) K. pneumonia (Klebsiella pneumonia; K. pneumonia, 5×10^5 CFU/mL): 12.5 µg/mL

PRT1007 (HVNPCESRPCQNGATCMAQPSGYLCQCAPGYDGQNCS; listed as Homo sapiens)
MIC (Moraxella catarrhalis; M. catarrhalis): 50 µg/mL
MIC (Citrobacter diversus; C. diversus): 12.5 µg/mL
MIC (E. coli BL21; E. coli BL21): 12.5 µg/mL
MIC (Proteus vulgaris; P. vulgaris): 12.5 µg/mL
MIC (Enterobacter cloacae; E. cloacae): 12.5 µg/mL
MIC (Pseudomonas aeruginosa; P. aeruginosa): 25 µg/mL
MIC (Proteus mirabilis; P. mirabilis): 25 µg/mL
MIC (Serratia marcescens; S. marcescens): 25 µg/mL
MIC (E. coli DH5α): 25 µg/mL
MIC (Aeromonas hydrophila; A. hydrophila): 50 µg/mL
MIC (Klebsiella pneumonia; K. pneumonia): 50 µg/mL

PRT414 (DIDECESGIHNCLPDFICQNTLGSFRCRPKLQCKSGFIQDALGNCI; listed as Homo sapiens)
MIC (Moraxella catarrhalis; M. catarrhalis, 5×10^5 CFU/mL): 25 µg/mL
MIC (Citrobacter diversus; C. diversus, 5×10^5 CFU/mL): 12.5 µg/mL
MIC (E. coli BL21; E. coli BL21, 5×10^5 CFU/mL): 12.5 µg/mL
MIC (Proteus vulgaris; P. vulgaris, 5×10^5 CFU/mL): 25 µg/mL
MIC (Enterobacter cloacae; E. cloacae, 5×10^5 CFU/mL): 12.5 µg/mL
MIC (Pseudomonas aeruginosa; P. aeruginosa, 5×10^5 CFU/mL): 12.5 µg/mL
MIC (Proteus mirabilis; P. mirabilis, 5×10^5 CFU/mL): 12.5 µg/mL
MIC (Serratia marcescens; S. marcescens, 5×10^5 CFU/mL): 50 µg/mL
MIC (E. coli DH5α): 12.5 µg/mL
MIC (Aeromonas hydrophila; A. hydrophila, 5×10^5 CFU/mL): 25 µg/mL
MIC (Klebsiella pneumonia; K. pneumonia, 5×10^5 CFU/mL): 12.5 µg/mL

PRT1117 (EVDECASAPCLHGGSCLDGVGSFRCVCAPGYGGTRCQ; listed as Homo sapiens)
MIC M. catarrhalis (Moraxella catarrhalis; [1]): 12.5 µg/mL
MIC C. diversus (Citrobacter diversus; [1]): 25 µg/mL
MIC E. coli BL21 (E. coli BL21; [1]): 12.5 µg/mL
MIC P. vulgaris (Proteus vulgaris; [1]): 12.5 µg/mL
MIC E. cloacae (Enterobacter cloacae; [1]): 50 µg/mL
MIC P. aeruginosa (Pseudomonas aeruginosa; [1]): 50 µg/mL
MIC P. mirabilis (Proteus mirabilis; [1]): 25 µg/mL
MIC S. marcescens (Serratia marcescens; [1]): 25 µg/mL
MIC (E. coli DH5α): 50 µg/mL
MIC A. hydrophila (Aeromonas hydrophila; [1]): 12.5 µg/mL
MIC K. pneumonia (Klebsiella pneumonia; [1]): 12.5 µg/mL

Reference: US9833497B2, “Human originated EGF domain proteins and use of the same” (CHENGDU SOURCEBIO LIMITED-LIABILITY COMPANY, priority 2013, dated 2017)
